From ChEMBL document CHEMBL5532659, “Design, Synthesis, and Evaluation of Cephamycin-Based Antisporulation Agents targeting Clostridioides difficile” (J Med Chem, 2024)
Converted amounts (≈) assume the structure as drawn. The source made the active and inactive calls. The calls are words filed in the database; no cut-off is given here.

How the values were obtained:
Acinetobacter baumannii = assay: Antimicrobial activity against Acinetobacter baumannii ATCC 19603 assessed as microbial growth inhibition incubated for 18 hrs; assay type: functional
Clostridioides difficile [1] = assay: Anti-sporulation activity against Clostridium difficile M7404 infected in C57BL/6J mouse model assessed as reduction in spore shedding in faeces at 50 ug/ml pre-infected for 6 hrs followed by compound treatment measured for 2 to 4 days post-infection; assay type: functional, organism-based; conditions: dose 50.0 µg/ml, time 42-90 hrs
Cryptococcus neoformans = assay: Antimicrobial activity against Cryptococcus neoformans ATCC 208821 assessed as microbial growth inhibition incubated for 36 hrs by resazurin dye based assay; assay type: functional
Escherichia coli = assay: Antimicrobial activity against Escherichia coli ATCC 25922 assessed as microbial growth inhibition incubated for 18 hrs; assay type: functional
[2] = Inhibition of Clostridium difficile SpoVD using Boc-FL as substrate preincubated for 30 mins followed by substrate addition measured after 30 mins by FP assay; design: species or system Clostridioides difficile
Klebsiella pneumoniae = assay: Antimicrobial activity against multidrug-resistant Klebsiella pneumoniae ATCC 700603 assessed as microbial growth inhibition incubated for 18 hrs; assay type: functional
Clostridioides difficile [3] = assay: Anti-sporulation activity against Clostridium difficile M7404 assessed as fold reduction in spore count incubated overnight by absorbance based assay relative to control; assay type: functional
Candida albicans = assay: Antimicrobial activity against Candida albicans ATCC 90028 assessed as microbial growth inhibition incubated for 36 hrs by resazurin dye based assay; assay type: functional
[4] = Cytotoxicity against HEK293 cells incubated for 20 hrs by resazurin dye based assay; assay type: toxicity, cell-based; conditions: human
Staphylococcus aureus = assay: Antimicrobial activity against methicillin-resistant Staphylococcus aureus ATCC 43300 assessed as microbial growth inhibition incubated for 18 hrs; assay type: functional
Pseudomonas aeruginosa = assay: Antimicrobial activity against Pseudomonas aeruginosa ATCC 27853 assessed as microbial growth inhibition incubated for 18 hrs; assay type: functional
Clostridioides difficile [5] = assay: Antimicrobial activity against Clostridium difficile assessed as microbial growth inhibition incubated for 18 hrs; assay type: functional
Erythrocyte = assay: Hemolytic activity in human RBC incubated for 70 mins by absorbance based assay; assay type: toxicity, cell-based; conditions: 1.167 h

SMILES | MIC50 (Acinetobacter baumannii) [µg/mL] | Activity (Clostridioides difficile [1]) | MIC50 (Cryptococcus neoformans) [µg/mL] | MIC50 (Escherichia coli) [µg/mL] | IC50 [2] [nM] | MIC50 (Klebsiella pneumoniae) [µg/mL] | fold change (FC) (Clostridioides difficile [3]) | MIC50 (Candida albicans) [µg/mL] | CC50 at 20 h [4] [µg/mL] | MIC50 (Staphylococcus aureus) [µg/mL] | MIC50 (Pseudomonas aeruginosa) [µg/mL] | MIC50 (Clostridioides difficile [5]) [µg/mL] | HC10 (Erythrocyte) [µg/mL]
CO[C@@]1(NC(=O)Cn2cc(-c3ccccc3)nn2)C(=O)N2C(C(=O)O)=C(CSc3nnnn3C)CS[C@@H]21 | > 32 | Active | > 32 | 32 (≈ 58.9 µM) | 89 | 32 (≈ 58.9 µM) | >100000 | > 32 | > 32 | 32 (≈ 58.9 µM) | > 32 | 5 (≈ 9.2 µM) | > 32
CO[C@@]1(NC(=O)Cn2cc(-c3cccc(F)c3)nn2)C(=O)N2C(C(=O)O)=C(CSc3nnnn3C)CS[C@@H]21 | > 32 |  | > 32 | 32 (≈ 57 µM) | 131 | > 32 | 1000 | > 32 | 13.2 (≈ 23.5 µM) | 32 (≈ 57 µM) | > 32 | 5 (≈ 8.9 µM) | > 32
CO[C@@]1(NC(=O)C2SC(=C(C(N)=O)C(=O)O)S2)C(=O)N2C(C(=O)O)=C(CSc3nnnn3C)CS[C@@H]21 (some centres undefined) [CEFOTETAN] | > 32 |  | > 32 | 4 (≈ 6.95 µM) | 15 | > 32 | 10000 | > 32 | > 32 | > 32 | > 32 | 20 (≈ 34.7 µM) | > 32
CO[C@@]1(NC(=O)Cn2cc(C3CCCCC3)nn2)C(=O)N2C(C(=O)O)=C(CSc3nnnn3C)CS[C@@H]21 | > 32 |  | > 32 | 32 (≈ 58.2 µM) | 90 | > 32 | >100000 | > 32 | > 32 | 32 (≈ 58.2 µM) | > 32 | 5 (≈ 9.1 µM) | 10
COc1ccc(-c2cn(CC(=O)N[C@]3(OC)C(=O)N4C(C(=O)O)=C(CSc5nnnn5C)CS[C@@H]43)nn2)cc1 | > 32 |  | > 32 | 32 (≈ 55.8 µM) | > 15000 | > 32 | 100 | > 32 | > 32 | 32 (≈ 55.8 µM) | > 32 | 10 (≈ 17.4 µM) | > 32
CO[C@@]1(NC(=O)Cn2cc(-c3cccc4cccnc34)nn2)C(=O)N2C(C(=O)O)=C(CSc3nnnn3C)CS[C@@H]21 | > 32 |  | > 32 | > 32 | 472 | > 32 | 100 | > 32 | > 32 | 32 (≈ 53.8 µM) | > 32 | > 40 | > 32
CO[C@@]1(NC(=O)Cn2cc(-c3ccc(C#N)cc3)nn2)C(=O)N2C(C(=O)O)=C(CSc3nnnn3C)CS[C@@H]21 | > 32 |  | > 32 | 32 (≈ 56.3 µM) | 72 | > 32 | >100000 | > 32 | > 32 | > 32 | > 32 | > 40 | > 32
CO[C@@]1(NC(=O)Cn2cc(-c3cccc(C(=O)O)c3)nn2)C(=O)N2C(C(=O)O)=C(CSc3nnnn3C)CS[C@@H]21 | > 32 |  | > 32 | 8 (≈ 13.6 µM) | 69 | 32 (≈ 54.5 µM) | 1000 | > 32 | > 32 | 32 (≈ 54.5 µM) | > 32 | 5 (≈ 8.51 µM) | > 32
CO[C@@]1(NC(=O)Cn2cc(CCC(C)C)nn2)C(=O)N2C(C(=O)O)=C(CSc3nnnn3C)CS[C@@H]21 | > 32 |  | > 32 | 32 (≈ 59.5 µM) | 142 | > 32 | 1000 | > 32 | 16.1 (≈ 29.9 µM) | 32 (≈ 59.5 µM) | > 32 | 5 (≈ 9.3 µM) | > 32
CO[C@@]1(NC(=O)Cn2cc(C(=O)O)nn2)C(=O)N2C(C(=O)O)=C(CSc3nnnn3C)CS[C@@H]21 | > 32 |  | > 32 | 16 (≈ 31.3 µM) |  | > 32 | 100 | > 32 | > 32 | ≤ 0.25 | > 32 | 20 (≈ 39.1 µM) | > 32
CO[C@@]1(NC(=O)Cn2cc(-c3ccc(C(=O)O)cc3)nn2)C(=O)N2C(C(=O)O)=C(CSc3nnnn3C)CS[C@@H]21 | > 32 |  | > 32 | 32 (≈ 54.5 µM) | 115 | 32 (≈ 54.5 µM) | 1000 | > 32 | > 32 | 32 (≈ 54.5 µM) | > 32 | 10 (≈ 17 µM) | > 32
CO[C@@]1(NC(=O)Cn2cc(-c3ccc4ccccc4c3)nn2)C(=O)N2C(C(=O)O)=C(CSc3nnnn3C)CS[C@@H]21 | > 32 |  | > 32 | > 32 | 54 | > 32 | >100000 | > 32 | > 32 | 32 (≈ 53.9 µM) | > 32 | 20 (≈ 33.7 µM) | > 32
CO[C@@]1(NC(=O)Cn2cc(-c3cccc4ccccc34)nn2)C(=O)N2C(C(=O)O)=C(CSc3nnnn3C)CS[C@@H]21 | > 32 |  | > 32 | 32 (≈ 53.9 µM) | 86 | > 32 | >100000 | > 32 | > 32 | 8 (≈ 13.5 µM) | > 32 | 40 (≈ 67.4 µM) | > 32
CO[C@@]1(NC(=O)Cn2cc(C(C)(C)O)nn2)C(=O)N2C(C(=O)O)=C(CSc3nnnn3C)CS[C@@H]21 | > 32 |  | > 32 | 32 (≈ 60.9 µM) |  | 32 (≈ 60.9 µM) | 100 | > 32 | 0.7 (≈ 1.33 µM) | 32 (≈ 60.9 µM) | > 32 | 40 (≈ 76.1 µM) | 17
CO[C@@]1(NC(=O)Cn2cc(CO)nn2)C(=O)N2C(C(=O)O)=C(CSc3nnnn3C)CS[C@@H]21 | > 32 |  | > 32 | 16 (≈ 32.2 µM) | 369 | 16 (≈ 32.2 µM) | 10 | > 32 | > 32 | 32 (≈ 64.3 µM) | > 32 | 10 (≈ 20.1 µM) | > 32
